# Legend:
# [1] = test system: permeabilized 4T1 cells; test: High-resolution fluorespirometry (respiration and H2O2 flux); assay type: cell-based, mouse
# Protocol: High-resolution fluorespirometry was performed using an Oxygraph-2 k system (OROBOROS INSTRUMENTS, Austria). All experiments were performed at 37 °C in MiR05 medium (110 mM sucrose, 60 mM K-lactobionate, 0.5 mM EGTA, 3 mM MgCl2, 20 mM taurine, 10 mM KH2PO4, 20 mM HEPES, pH 7.1 at 30 °C, and 0.1% BSA essentially fatty acid free). The medium was reoxygenated when the oxygen concentration dropped to 80 µM. H2O2 flux was simultaneously measured with respirometry in the O2k-Fluorometer using the H2O2-sensitive probe Ampliflu Red (AmR) as described. The H2O2/O flux ratio [%] was calculated as the H2O2 flux/(0.5 O2 flux).
# In permeabilized 4T1 cells, pyruvate + malate (5 and 2 mM) or glutamate + malate (10 and 2 mM) were used to determine complex I (CI)-linked LEAK (L) respiration. ADP was added to a concentration of 5 mM to determine the oxidative phosphorylation-dependent respiration (OXPHOS state). Succinate (10 mM, complex II (CII) substrate) was then added to reconstitute convergent CI&II-linked respiration. Rotenone (0.5 µM, an inhibitor of complex I) and antimycin A (2.5 µM, an inhibitor of complex III) were added to determine the CII-linked OXPHOS capacity and residual oxygen consumption (ROX), respectively. Compound 6 was added to permeabilized cells after the addition of the respective substrates in the OXPHOS state (titration experiment) or in the LEAK state. In addition, compounds 3, 6 and 7 were tested at 1 µM in the OXPHOS coupling protocol in the LEAK state. The OXPHOS coupling efficiency was calculated as: 1-Resp.rateLEAKstate/Resp.rateOXPHOSstate
# The substrate-dependent flux control factor was calculated as: 1-Resp.ratebeforeadditionofrespectivesubstrate/Resp.rateafteradditionofrespectivesubstrate
# [2] = Cytotoxicity assay (MTT), 3T3; assay type: cell-based, mouse; details: mouse, NIH 3T3 cells (fibroblasts), normal cell line, mean ± S.D., 3 experiments
# Protocol: (§1) MCF-7 (human breast adenocarcinoma, estrogen-positive) and 4T1 (mouse carcinoma), as breast cancer cell lines, and H9C2 (rat cardiomyoblasts), NIH 3T3 (mouse fibroblasts), HEKa (primary human epidermal keratinocytes), MDCK (Madin-Darby Canine Kidney) cells, and A7r5 (rat vascular smooth muscle cells), as normal cell lines, were obtained from the American Type Culture Collection [ATCC] collection for use in the current study. All cell lines were cultured in Dulbecco's modified Eagle's medium (DMEM) containing 10% fetal bovine serum (FBS) and 4 mM L-glutamine at 37 °C and 5% CO2.
# (§2) Cell viability was assessed by the addition of 3-(4,5-dimethylthiazol-2-yl)-2,5-diphenyltetrazolinium bromide (MTT). Briefly, cells were seeded (2–6 × 10^4 cells/ml) in 96-well plates and allowed to attach for 24 h. Solutions of test compounds were prepared and serially diluted to obtain the appropriate concentrations. The cells were treated with the test compounds at different concentrations (0.032–100 µM) and incubated for 48 h at 37 °C and 5% CO2. Then, the culture medium was removed, and medium containing 0.2 mg/ml MTT was added. After 3 h (37 °C, 5% CO2), the MTT-containing medium was removed, and 200 μl of dimethyl sulfoxide (DMSO) was immediately added to each sample. The absorbance was assessed at 540 nm using a Tecan multiplate reader Infinite 1000 (Austria). The half-maximal inhibitory concentration (IC50) of each compound was calculated using Graph Pad Prism 3.0.
# [3] = test system: 4T1; test: Cytotoxicity assay (MTT), 4T1; assay type: cell-based, mouse
# Protocol: as §1, §2
# [4] = target: T1, NAMPT (Homo sapiens, UniProt P43490); test: NAMPT activity assay in lysates of treated cells; assay type: cell-based; details: MCF-7 cells, 2 µM, 4 h
# T1 construct: endogenous in cells; host or cells: MCF-7
# Protocol: MCF-7 cells (5 × 10^6 cells per well) were grown in a 6-well plate and then incubated with the test compounds (2 µM) for 4 h. The cells were harvested by scraping, washed with PBS and lysed with 50 mM Tris–HCl (pH 7.5), 150 mM NaCl, 1 mM DTT, 1 mM PMSF, 0.002 mg/ml leupeptin and pepstatin (2 × 10^6 cells in 100 µl buffer solution). After three freeze–thaw cycles at -80 °C, the cell extract was centrifuged at 15 000 × g for 30 min at 4 °C. The supernatant was collected, and the protein concentrations were determined using a Bio-Rad protein assay kit. The NAMPT enzyme reaction was performed as described previously. The enzymatic reaction mixture contained 50 mM Tris–HCl buffer (pH 7.5), 12 mM MgCl2, 2 mM DTT, 0.02% BSA, 2.5 mM ATP, 0.8 mM PRPP, and 50 μM nicotinamide. […] The concentrations of the NAMPT reaction product, nicotinamide mononucleotide (NMN), in the samples were determined using a described method. […] The fluorescence was measured using a Tecan multiplate reader Infinite 1000 (Austria) with excitation at 382 nm and emission at 445 nm. The NMN concentrations in the reaction mixtures were determined by comparison with NMN standards in the range of 0.16–20 μM. The NAMPT activity in the cell lysates is expressed as the concentration of NMN in μmol per mg protein per hour based on standard NMN readings.
# [5] = test system: MCF-7 cells; test: Fluorometric measurement of NMN level; assay type: cell-based, human; details: 2 μM, 10 min, vs control
# Protocol: For fluorometric measurements of NMN, a previously described method was used, with minor modifications. […] The cells were washed with PBS and then lysed by adding 200 μl of 1 M HClO4 to each well and incubating at 4 °C for 20 min. The cells were harvested by scraping and transferred to a tube. The extracts were neutralized with 100 μl of 2 M KOH for 5 min at room temperature and 50 μl of 0.1 M bicine (pH 7.4) was added. The samples were centrifuged at 14 000 × g for 10 min at 4 °C, and the supernatant was collected for further analysis. The protein concentration in each sample was determined using a Bio-Rad protein assay kit. […] The reaction was incubated for 2 min at 4 °C, after which 45 μl of 88% formic acid was added, and the samples were incubated for another 10 min at 37 °C on a shaker. The fluorescence was measured using a Tecan multiplate reader Infinite 1000 (Austria) with excitation at 382 nm and emission at […].
# [6] = Cytotoxicity assay (MTT), H9C2; assay type: cell-based, rat; details: rat, H9C2 cells (cardiomyoblasts); normal cell line; MTT, 48 h; mean ± S.D., 3 experiments
# Protocol: as §1, §2
# [7] = test system: MCF-7 cells; test: NAD+/NADH assay kit measurement; assay type: cell-based, human; details: 2 μM, 10 min, vs control
# Protocol: The NAD^+/NADH ratio in the MCF-7 cells exposed to the test compounds (2 μM) for 10 min was measured using an NAD^+/NADH assay kit (Abcam, ab65348) according to the manufacturer's instructions.
# [8] = Cytotoxicity assay (MTT), MDCK; assay type: cell-based, Canine; details: dog, MDCK cells, normal cell line, mean ± S.D., 3 experiments
# Protocol: as §1, §2
# [9] = test system: MCF-7; test: Cytotoxicity assay (MTT), MCF-7; assay type: cell-based, human; details: Homo sapiens, MCF7; breast cancer cell line; MTT, 48 h; mean ± S.D., 3 experiments; read-out: Cytotoxicity, IC50, MCF-7
# Protocol: as §1, §2
# [10] = Cytotoxicity assay (MTT), A7r5; assay type: cell-based, rat; details: rat, A7r5 cells (vascular smooth muscle cells), normal cell line, mean ± S.D., 3 experiments
# Protocol: as §1, §2
# [11] = Cytotoxicity assay (MTT), HEKa; assay type: cell-based, human; details: human, HEKa cells (primary epidermal keratinocytes), normal cell line, mean ± S.D., 3 experiments
# Protocol: as §1, §2
# [12] = 1 µM, pyruvate-dependent OXPHOS state
# [13] = titration, pyruvate + malate and glutamate + malate, OXPHOS
# T1 sequence (P43490 whole entry): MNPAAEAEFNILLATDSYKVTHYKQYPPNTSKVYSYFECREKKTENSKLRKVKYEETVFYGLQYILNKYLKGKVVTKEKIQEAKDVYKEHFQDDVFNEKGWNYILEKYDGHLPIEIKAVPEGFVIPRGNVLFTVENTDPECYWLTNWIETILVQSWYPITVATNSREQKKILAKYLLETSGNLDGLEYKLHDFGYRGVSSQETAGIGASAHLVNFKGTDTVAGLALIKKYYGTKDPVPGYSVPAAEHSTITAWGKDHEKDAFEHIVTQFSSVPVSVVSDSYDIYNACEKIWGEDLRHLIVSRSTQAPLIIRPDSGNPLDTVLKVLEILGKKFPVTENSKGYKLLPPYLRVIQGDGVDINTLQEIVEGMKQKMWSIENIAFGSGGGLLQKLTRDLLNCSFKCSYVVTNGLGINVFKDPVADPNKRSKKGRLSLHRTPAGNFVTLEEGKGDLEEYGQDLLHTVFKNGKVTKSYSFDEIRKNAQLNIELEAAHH
smiles,measurement,setting,value
"OC1(c2[se][n+]3ccccc3c2Br)CCCCC1.[Cl-] [Compound 3, 3-bromo-2-(1-hydroxycyclohexyl)-[1,2]selenazolo[2,3-a]pyridinium chloride]",OXPHOS coupling efficiency,[1]; 1 µM,significant decrease
same,increase in H2O2/O ratio,[1]; [12],immediate significant increases
same,increase in H2O2 production,[1]; [12],immediate significant increases
same,mitochondrial function in the CII-linked OXPHOS state,[1]; titration,no significant changes
same,H2O2 production with complex I (NADH-linked) substrates,[1]; [13],increased
same,mitochondrial respiration rate with complex I (NADH-linked) substrates,[1]; [13],inhibited
same,IC50 at 48 h,[2],0.39 ± 0.05 µM
same,IC50,"[3]; Mus musculus, 4T1, breast cancer cell line, MTT, 48 h, mean ± S.D., 3 experiments, read-out: Cytotoxicity, IC50, 4T1",0.044 ± 0.005 µM
same,selectivity towards tumor cell lines,[3]; comparing 4T1 to A7r5,> 42 fold
same,reduction in NAMPT activity,[4],slight decreases
same,decrease in NMN levels,[5],33%
same,IC50 at 48 h,[6],2.2 ± 0.1 µM
same,decrease in NAD+ level,[7],59%
same,decrease in NAD+/NADH ratio,[7],38%
same,decrease in NADH level,[7],33%
same,IC50 at 48 h,[8],2.91 ± 0.13 µM
same,IC50,[9],0.5 ± 0.02 µM
same,IC50 at 48 h,[10],1.85 ± 0.22 µM
same,IC50 at 48 h,[11],2.21 ± 0.02 µM

# Reference: PMC7725824, “Fused isoselenazolium salts suppress breast cancer cell growth by dramatic increase in pyruvate-dependent mitochondrial ROS production” (Scientific Reports, 2020)
